Source: PubChem BioAssay (NCI)
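Method: 48-hour compound exposure of cells in 96-well plates, five concentrations, linear interpolation of endpoints. Abbreviation: GI50, concentration required for 50% inhibition of growth. TGI marks complete inhibition of growth.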

Legend:
Assay in all cases: DTP human tumour cell line panel, 48 h
786-0 renal = system: 786-0 renal
CAKI-1 renal = system: CAKI-1 renal
CCRF-CEM leukemia = system: CCRF-CEM leukemia
HCC-2998 colon = system: HCC-2998 colon
HCT-116 colon = system: HCT-116 colon
HOP-92 NSCLC = system: HOP-92 NSCLC
K-562 leukemia = system: K-562 leukemia
SK-MEL-5 melanoma = system: SK-MEL-5 melanoma
SR leukemia = system: SR leukemia
NCI/ADR-RES ovarian = system: NCI/ADR-RES ovarian

| SMILES | TGI (786-0 renal) [µM] | TGI (CAKI-1 renal) [µM] | TGI (CCRF-CEM leukemia) [µM] | TGI (HCC-2998 colon) [µM] | TGI (HCT-116 colon) [µM] | TGI (HOP-92 NSCLC) [µM] | TGI (K-562 leukemia) [µM] | TGI (SK-MEL-5 melanoma) [µM] | TGI (SR leukemia) [µM] | GI50 (786-0 renal) [µM] | GI50 (CAKI-1 renal) [µM] | GI50 (CCRF-CEM leukemia) [nM] | GI50 (HCC-2998 colon) [µM] | GI50 (HCT-116 colon) [µM] | GI50 (K-562 leukemia) [µM] | GI50 (NCI/ADR-RES ovarian) [µM] | TGI (NCI/ADR-RES ovarian) [µM] | GI50 (SK-MEL-5 melanoma) [µM] | GI50 (SR leukemia) [nM] |
| --- | --- | --- | --- | --- | --- | --- | --- | --- | --- | --- | --- | --- | --- | --- | --- | --- | --- | --- | --- |
| COC(=O)[C@H]1C=C[C@@H](C)n2c(=O)c3cc4ccccc4cc3c(=O)n21 | > 100 | > 100 | > 100 | > 100 | > 100 | > 100 | > 100 | > 100 | > 100 |  |  |  |  |  |  |  |  |  |  |
| Cc1cc(C)nc(NS(=O)(=O)c2ccc(NC(=O)c3cccc4c(Nc5ccc(S(N)(=O)=O)cc5)c5ccccc5nc34)cc2)n1 | > 100 | > 100 | > 25.1 | 36.1 | 21.7 | 61.1 | > 67.6 | > 95.9 |  |  |  |  |  |  |  |  |  |  |  |
| Cc1ccc(NC(=O)CSc2nnc(-c3ccc(N=Cc4ccc(Cl)cc4)cc3)o2)cc1 | > 100 |  | > 100 |  | > 100 |  | > 100 | > 100 | > 100 |  |  |  |  |  |  |  |  |  |  |
| COC1(OC)CC2C(=O)N(Cc3ccccc3)C1C=C2S(=O)(=O)c1ccccc1 (stereo not drawn) | 38.2 |  | 44.9 | 33.6 | 26.7 | 54.1 | 63.2 | 26.7 | 46.3 |  |  |  |  |  |  |  |  |  |  |
| C/C(CC(=O)Nc1cccc(Cl)c1C)=N\NC(=O)c1ccncc1 | > 100 |  | > 100 | > 100 | > 100 | > 100 | > 100 | > 100 |  |  |  |  |  |  |  |  |  |  |  |
| Cc1nc([N+](=O)[O-])cn1CC(=N)N | > 100 |  | > 100 | > 100 | > 100 |  | > 100 | > 100 | > 100 |  |  |  |  |  |  |  |  |  |  |
| CC1COC(C)(C)P(=O)(c2ccccc2)C1 (stereo not drawn) | > 100 |  | > 100 | > 100 | > 100 |  | > 100 | > 100 | > 100 |  |  |  |  |  |  |  |  |  |  |
| COc1cc(C=O)c(-c2cc(OC)c(OC)cc2C=O)cc1OC | > 100 | > 100 | > 100 | > 100 | > 100 | > 100 | > 100 | > 100 | 88.9 |  |  |  |  |  |  |  |  |  |  |
| COc1ccc(O)c(C(=O)c2ccc(C(=O)N[C@H]3CCCNC[C@@H]3NC(=O)c3ccncc3)cc2)c1F | > 20.2 | > 25 | 6.42 | > 25 | > 25 |  | > 25 | > 17.8 | 12.7 | 3.07 | > 25 | 721 | 9.74 | 12.3 | 7.78 | > 25 | > 25 | 5.5 | 630 |
| CC(C)N(CCn1c2c3ccccc3ccc2c2oc(=O)c3ccccc3c21)C(C)C | > 100 | > 100 | > 100 |  | > 100 | > 92.3 | > 100 |  | > 100 |  |  |  |  |  |  |  |  |  |  |
| COC(=O)/C=C1\CCC(C)O1 (stereo not drawn) | > 100 | > 100 | > 100 | > 100 | > 100 | > 100 | > 100 | > 100 |  |  |  |  |  |  |  |  |  |  |  |
| N#CC(C(=O)C(=O)Nc1ccc(Cl)cc1)c1ccccc1 (stereo not drawn) | > 100 | > 100 | > 100 | > 100 | > 100 | > 100 | > 100 | > 100 | > 100 |  |  |  |  |  |  |  |  |  |  |
